Reference: patent publication US20220362273A1 (priority 2021, published 2022)

Tests used:
Details in all cases: mouse, in vivo
NM-challenged skin = system: NM-challenged skin; set-up: species or system mice
[1] = system: skin exposed to nitrogen mustard (NM); set-up: species or system C57Bl/6 mice
[2] = system: mice challenged with topical nitrogen mustard (NM)
iNOS = system: iNOS; set-up: species or system mice

| Structure (SMILES) | inflammatory cells in skin (NM-challenged skin) | skin thickness (NM-challenged skin) | skin thickness by bi-fold caliper measurements [1] | lesion area at day 5 [2] | lesion size [2] | systemic toxicity [2] | iNOS levels (relative iNOS gene expression) (iNOS) |
| --- | --- | --- | --- | --- | --- | --- | --- |
| CC(=O)S[C@@H]1CC2=CC(=O)CC[C@]2(C)[C@H]2CC[C@@]3(C)[C@@H](CC[C@@]34CCC(=O)O4)[C@H]12 [spironolactone] | significant reduction | decrease in thickness | showed efficacy in reducing skin thickness | reduce lesion area | dose dependent reduction | sustained systemic toxicity |  |
| C=C1CC[C@H](O)C/C1=C/C=C1\CCC[C@]2(C)[C@@H]([C@H](C)CCCC(C)(C)O)CC[C@@H]12 [25(OH)D, 25-hydroxyvitamin D3] |  |  |  |  |  |  | responded |
